The record followed here is patent publication US20230295152A1 (SENDA BIOSCIENCES, INC., priority 2019, published 2023).

What all share (assay type): in vitro ADME
The nature of data set [1]: Hepatocyte Stability Assay, human. The following applies: for CLint scaled at 1 μM: cryopreserved hepatocytes in suspension, human hepatocytes, read-out: Human hepatocyte clearance; for Human hepatocyte intrinsic clearance, suspension Hheps ClInt (% Qh): suspension human hepatocytes.
Data set [2] in a line: Hepatocyte Stability Assay, rat. As to all read-outs here: tested at 1 µM. To be noted: for Rat hepatocyte clearance: rat hepatocytes; for Suspension Rat heps Clint (% Qh): suspension rat hepatocytes. As to the method:
• Preparation of working solutions: 10 mM stock solutions of test compound and positive control were prepared in DMSO. In separate conical tubes, the 10 mM solution of test compound and the positive control were diluted to 100 μM by combining 198 μL of 50% acetonitrile/50% water and 2 μL of 10 mM stock.
Preparation of Hepatocytes: Incubation medium (William's E Medium supplemented with GlutaMAX) and hepatocyte thawing medium were placed in a 37° C. water bath and allowed warming for at least 15 minutes prior to use. A vial of cryopreserved hepatocytes was transferred from storage, ensuring that vials remained at cryogenic temperatures until thawing process ensued. Cells were thawed by placing the vial in a 37° C. water bath and gently shaking the vials for 2 minutes. After thawing was completed, vial was sprayed with 70% ethanol and transferred to a biosafety cabinet. Wide-bore pipette tip were used to transfer hepatocytes into 50 mL conical tube containing thawing medium. The 50 mL conical tube were placed into a centrifuge and spun at 100 g for 10 minutes. Upon completion of spin, thawing medium was aspirated and resuspended hepatocytes in enough incubation medium to yield ˜1.5×10^6 cells/mL. Using an AO/PI Staining, cells were counted and the viable cell density was determined. Cells with poor viability (<75% viability) were determined to be not acceptable for use. Cells were diluted with incubation medium to a working cell density of 0.5×10^6 viable cells/mL.
Procedure for Stability Determination: 198 μL of hepatocytes were pipetted into each wells of a 96-well non-coated plate. The plate was placed in the incubator to allow the hepatocytes to warm for 10 minutes. 2 μL of the 100 μM test compound or positive control solutions were pipetted into respective wells of the 96-well non-coated plate to start the reaction. The plate was returned to the incubator for the designed time points. Well contents was transferred in 25 μL aliquots at time points of 0, 15, 30, 60, 90 and 120 minutes. The aliquots were then mixed with 6 volumes (150 μL) of acetonitrile containing internal standard, IS (100 nM alprazolam, 200 nM caffeine and 100 nM tolbutamide) to terminate the reaction. The mixture was vortex for 5 minutes. Samples were centrifuged for 45 minutes at 3,220 g. An aliquot of 100 μL of the supernatant was diluted by 100 μL ultra-pure water, and the mixture was used for LC/MS/MS analysis. All incubations were performed in duplicate.
Data Analysis: All calculations were carried out using Microsoft Excel. Peak areas were determined from extracted ion chromatograms. In vitro half-life (t1/2) of parent compound was determined by regression analysis of the percent parent disappearance vs. time curve.
The in vitro half-life (in vitro t1/2) was determined from the slope value:
Conversion of the in vitro t1/2 (in min) into the in vitro intrinsic clearance (in vitro CLint, in μL/min/1×10^6 cells) was done using the following equation (mean of duplicate determinations):
V=incubation volume(0.2 mL);
N=number of hepatocytes per well(0.1×10^6 cells).
“+++” indicates a CLint value less than 20 mL/min/Kg, “++” indicates a CLint between 20 and 50 mL/min/Kg, and “+” indicates an CLint above 50 mL/min/Kg.

The target in another data set is T1, CYP2D6 (Homo sapiens, UniProt P10635).
T1 construct: from tissue; host or cells: human liver microsomes (HLM)
T1 sequence (P10635 whole entry): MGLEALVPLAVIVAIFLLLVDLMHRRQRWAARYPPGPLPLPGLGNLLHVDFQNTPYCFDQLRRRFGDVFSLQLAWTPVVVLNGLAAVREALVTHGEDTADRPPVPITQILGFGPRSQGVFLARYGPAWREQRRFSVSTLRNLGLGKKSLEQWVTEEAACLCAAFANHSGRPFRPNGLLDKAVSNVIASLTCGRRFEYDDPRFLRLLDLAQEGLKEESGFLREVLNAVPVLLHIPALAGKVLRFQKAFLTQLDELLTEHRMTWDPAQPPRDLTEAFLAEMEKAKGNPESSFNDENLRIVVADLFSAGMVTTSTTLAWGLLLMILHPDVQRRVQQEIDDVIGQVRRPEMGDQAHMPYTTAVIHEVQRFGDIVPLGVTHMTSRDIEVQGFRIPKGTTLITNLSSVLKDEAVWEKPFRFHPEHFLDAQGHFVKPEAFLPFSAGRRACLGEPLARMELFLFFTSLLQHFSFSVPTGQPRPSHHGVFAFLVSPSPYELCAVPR
In words: CYP Inhibition Assay in human liver microsomes, CYP2D6. To be noted: pH 7.4. How it is done: Stock solutions of test compounds were prepared in DMSO at the concentrations of 10 mM. Stock solution was diluted to 2 mM with acetonitrile. The final concentration of test compounds was 10 μM. For the stock solution preparation, if the positive control could not be well dissolved in the mixture of DMSO and acetonitrile (1:4) at the highest concentration, another mixture of acetonitrile and DMSO, the mixture of acetonitrile and H2O or DMSO will be used to dissolve the compound.
The substrate solutions are stored in a −20° C. freezer and warmed to room temperature prior to use.
Preparation of Phosphate Buffer (100 mmol/L, pH 7.4): To prepare the Solution A, 7.098 g of disodium hydrogen phosphate were weighed out and added into 500 mL of pure water, then sonicated to dissolve the content. To prepare the Solution B, 3.400 g of potassium dihydrogen phosphate were weighed out and added into 250 mL of pure water, then sonicated to dissolve the content. Solution A was placed on a stirrer and slowly Solution B was added into Solution A until the pH reached 7.4. Preparation of 10 mmol/L NADPH Solution: NADPH was dissolved at 8.334 mg/mL in phosphate buffer; the solution was freshly prepared prior to use.
The master solution was prepared according to Table 45. The incubation was carried out in 96 deep well plates. The following volumes were dispensed into each well of the incubation plate: 179 μL of the substrate and HLM mixture in phosphate buffer, 1 μL of the compound working solution, or vehicle (mixture of DMSO and acetonitrile (1:4)). The incubation plate was placed into the water bath and pre-warmed at 37° C. for 15 minutes before the reactions was started by the addition of 20 μL of 10 mmol/L NADPH solution in phosphate buffer. After the addition of NADPH, the incubation plate was incubated at 37° C. for corresponding time. The assay was performed in duplicate.
The reaction was quenched by the addition of 1.5 volume (300 μL) of cold acetonitrile containing 3% formic acid and internal standards (200 nM Labetalol, 200 nM Alprazolam and 200 nM tolbutamide). The plate was centrifuged at 3,220 g for 40 minutes. 100 μL of the supernatant was transferred to a new plate. The supernatant was diluted with 100 μL pure water. The samples were mixed well and analyzed using UPLC/MS/MS.
Data Analysis: The automatic peak integration areas are checked for all the samples. The Analyte Peak Area and Internal Standard Peak Area are exported into excel spreadsheet. The inhibition of each P450 enzyme in human liver microsomes is measured as the percentage decrease in the activity of marker metabolite formation compared to non-inhibited controls (=100% activity).
The percentage of remaining activity was calculated as follows:
Area Ratio=Peak Area Analyte/Peak Area Internal Standard Remaining Activity (%)=Area Ratio test compound/Area Ratio vehicle*100% Inhibition %=100-Remaining Activity (%)
For orientation: Liver microsomes are vesicles of endoplasmic reticulum, rich in cytochrome P450 enzymes.

What is called inhibition is the share of the control response that was lost under treatment. A higher inhibition goes with a response far below the control. In the case of `C[C@@H](CO)n1cnc2c(-c3cccc(F)c3)nc(-c3ccc(Cl)cc3)cc2c1=O` [Compound 7], the CLint scaled at 1 μM in data set [1] fell in the range of 20 to 50 mL/min/kg. The Rat hepatocyte clearance result in data set [2] was “++ (“++” indicates a CLint between 20 and 50 mL/min/Kg)”. For the same molecule, the inhibition at 10 µM at CYP2D6 is 6.78%.
For the molecule `CC(C)(O)Cn1cnc2c(-c3cccnc3)nc(-c3ccc(C(F)(F)F)nc3)cc2c1=O` [Compound 9], in data set [1], the CLint scaled at 1 μM is below 20 mL/min/kg and the “Human hepatocyte intrinsic clearance, suspension Hheps ClInt (% Qh)” value is reported as below 31 % Qh. Besides, in data set [2], the Rat hepatocyte clearance result is “+++ (“+++” indicates a CLint value less than 20 mL/min/Kg)” and the “Suspension Rat heps Clint (% Qh)” value is on record as below 24 % Qh. The same molecule showed an inhibition at 10 µM against CYP2D6 of 7.19%.
With `C[C@@H](CO)n1cnc2c(-c3cccnc3)nc(-c3ccc(C(F)(F)F)nc3)cc2c1=O` [Compound 12], the CLint scaled at 1 μM in data set [1] is below 20 mL/min/kg. For the same molecule, the Rat hepatocyte clearance result in data set [2] is “+++ (“+++” indicates a CLint value less than 20 mL/min/Kg)”. The molecule further yielded an inhibition at 10 µM against CYP2D6 of 8.45%.
The matching figures for `CC(C)(O)Cn1cnc2c(-c3cccnc3)nc(-c3ccc(C(F)(F)F)cc3)cc2c1=O` [Compound 16]: below 20 mL/min/kg, “+++ (“+++” indicates a CLint value less than 20 mL/min/Kg)” and 15.6%.
The matching figures for `CC(C)(O)Cn1cnc2c(-c3cccnc3)nc(-c3ccc(Cl)cc3)cc2c1=O` [Compound 18]: below 20 mL/min/kg, “+++ (“+++” indicates a CLint value less than 20 mL/min/Kg)” and 12.1%.
For `C[C@@H](CO)n1cnc2c(-c3cnn(C)c3)nc(-c3ccc(Cl)cc3)cc2c1=O` [Compound 27], the CLint scaled at 1 μM in data set [1] is below 20 mL/min/kg. Further, in data set [2], the Rat hepatocyte clearance result was “+++ (“+++” indicates a CLint value less than 20 mL/min/Kg)”. The molecule also showed an inhibition at 10 µM against CYP2D6 of 8.96%.
In the case of `C[C@H](n1cnc2c(-c3cnn(C)c3)nc(-c3ccc(Cl)cc3)cc2c1=O)C(C)(C)O` [Compound 30], the CLint scaled at 1 μM in data set [1] is below 20 mL/min/kg. Further, the Rat hepatocyte clearance result in data set [2] is “++ (“++” indicates a CLint between 20 and 50 mL/min/Kg)”. For the same molecule, the inhibition at 10 µM at CYP2D6 is 11.2%.
As to `C[C@@H](CO)n1cnc2c(-n3ccnc3)nc(-c3ccc(OC(F)(F)F)cc3)cc2c1=O` [Compound 44, (S)-3-(1-hydroxypropan-2-yl)-8-(1H-imidazol-1-yl)-6-(4-(trifluoromethoxy)-phenyl)pyrido[3,4-d]pyrimidin-4(3H)-one], the CLint scaled at 1 μM in data set [1] is below 20 mL/min/kg. In addition, the Rat hepatocyte clearance result in data set [2] is given as “+++ (“+++” indicates a CLint value less than 20 mL/min/Kg)”.
In the case of `C[C@@H](CO)n1cnc2c(-c3cccnc3)nc(-c3ccc(C(F)(F)F)cn3)cc2c1=O` [Compound 46, (S)-3-(1-hydroxypropan-2-yl)-8-(pyridin-3-yl)-6-(5-(trifluoromethyl)pyridin-2-yl)pyrido[3,4-d]pyrimidin-4(3H)-one], in data set [1], the CLint scaled at 1 μM is below 20 mL/min/kg and the “Human hepatocyte intrinsic clearance, suspension Hheps ClInt (% Qh)” value was below 31 % Qh. Also, in data set [2], the Rat hepatocyte clearance entry is “+++ (“+++” indicates a CLint value less than 20 mL/min/Kg)” and the “Suspension Rat heps Clint (% Qh)” value is below 24 % Qh. On CYP2D6, 10 µM produced 7.43% inhibition.
Regarding `C[C@@H](CO)n1cnc2c(-c3cccc(F)c3)nc(-c3ccc(C(F)(F)F)cn3)cc2c1=O` [Compound 47, (S)-8-(3-fluorophenyl)-3-(1-hydroxypropan-2-yl)-6-(5-(trifluoromethyl)pyridin-2-yl)pyrido[3,4-d]pyrimidin-4(3H)-one], the CLint scaled at 1 μM in data set [1] was below 20 mL/min/kg. Besides, the Rat hepatocyte clearance entry in data set [2] is listed as “+++ (“+++” indicates a CLint value less than 20 mL/min/Kg)”.
The matching figures for `Cn1cc(-c2nc(-c3ccc(C(F)(F)F)nc3)cc3c(=O)n(CC(C)(C)O)cnc23)cn1` [Compound 60]: below 20 mL/min/kg and “+++ (“+++” indicates a CLint value less than 20 mL/min/Kg)”.
Consider `C[C@@H](CO)n1cnc2c(-c3cnn(C)c3)nc(-c3ccc(C(F)(F)F)nc3)cc2c1=O` [Compound 68], for which the CLint scaled at 1 μM in data set [1] is below 20 mL/min/kg. The Rat hepatocyte clearance entry in data set [2] is recorded as “+++ (“+++” indicates a CLint value less than 20 mL/min/Kg)”. On CYP2D6, the inhibition at 10 µM was determined as 10.9%.
On to `C[C@@H](CO)n1cnc2c(-c3cccnc3)nc(-c3ccc(C4CC4)nc3)cc2c1=O` [Compound 74], for which the CLint scaled at 1 μM in data set [1] was below 20 mL/min/kg. Also, the Rat hepatocyte clearance result in data set [2] was “++ (“++” indicates a CLint between 20 and 50 mL/min/Kg)”. In addition, 10 µM produced 7.27% inhibition against CYP2D6.
For the molecule `O=c1c2cc(-c3ccc(C(F)(F)F)nc3)nc(-c3cccnc3)c2ncn1[C@@H]1COC[C@H]1O` [Compound 79], in data set [1], the CLint scaled at 1 μM was below 20 mL/min/kg. The Rat hepatocyte clearance result in data set [2] was “+++ (“+++” indicates a CLint value less than 20 mL/min/Kg)”. Moreover, testing at 10 µM at CYP2D6 gave an inhibition of 8%.
In the case of `Cn1cc(-c2nc(-c3ccc(C(F)(F)F)cn3)cc3c(=O)n(CC(C)(C)O)cnc23)cn1` [Compound 103, 3-(2-hydroxy-2-methylpropyl)-8-(1-methyl-1H-pyrazol-4-yl)-6-(5-(trifluoromethyl)pyridin-2-yl)pyrido[3,4-d]pyrimidin-4(3H)-one], the CLint scaled at 1 μM in data set [1] is below 20 mL/min/kg. Also, in data set [2], the Rat hepatocyte clearance entry is “++ (“++” indicates a CLint between 20 and 50 mL/min/Kg)”. Also, the inhibition at 10 µM at CYP2D6 is 8.7%.
Turning to `CC(C)(O)Cn1cnc2c(-c3cccnc3)nc(-c3ccc(C(F)(F)F)cn3)cc2c1=O` [Compound 105], the CLint scaled at 1 μM in data set [1] was below 20 mL/min/kg. Moreover, in data set [2], the Rat hepatocyte clearance result is on record as “+++ (“+++” indicates a CLint value less than 20 mL/min/Kg)”. This molecule also yielded an inhibition at 10 µM on CYP2D6 of 2.73%.
The matching figures for `O=c1c2cc(-c3ccc(Cl)cc3)nc(-c3cccnc3)c2ncn1[C@H]1COC[C@@H]1O` [Compound 125, 6-(4-chlorophenyl)-3-((3S,4R)-4-hydroxytetrahydrofuran-3-yl)-8-(pyridin-3-yl)pyrido[3,4-d]pyrimidin-4(3H)-one]: below 20 mL/min/kg, “+ (“+” indicates an CLint above 50 mL/min/Kg)” and 20.6%.
